Where two headings read alike, the source gives them in different places.
Tests used:
[1] = Pharmacokinetics of single intraperitoneal injection in mice (LC-MS/MS, plasma and brain tissue); type: in vivo, male C57BL/6J mice; settings: i.p. 30 mg/kg; for MRT last: read-out: MRT(0-t); for MRT inf: read-out: MRT(0-∞)
Description: LC-MS/MS method was used to measure the concentration of LK-2 in plasma and brain tissue. LK-2 was dissolved in 0.9% saline to a concentration of 1 mg/ml. Blood samples were collected at 5 min, 15 min, 30 min, 1.0 h, 2.0 h, and 4.0 h time points into EDTA-coated tubes, then centrifuged at 2,000 g for 15 min to generate plasma samples. Brain tissue samples were collected after perfusion with saline through the left ventricle, and the brain tissue were diluted and homogenized with 5 volumes (w:v) of 0.9% NaCl. LC-MS/MS method for quantification of LK-2 in plasma and brain tissue samples was developed using LC-MS/MS-T_API4000 instrument. The general sample processing procedure is as follows. • 1) 30 μl plasma samples were divided, standard samples were calibrated with quality control, and single blank and double blank samples were added into 1.5 ml tubes, respectively. 40 μl brain tissue homogenate were added to each well of a 96-well plate, respectively, and standard samples were calibrated with quality control, single blank and double blank samples were aliquoted. • 2) Each sample (excluding double blanks) was mixed with 150 μl (plasma samples) or 200 μl (brain tissue homogenate) of internal standard solution [a 6-in-1 internal standard solution (100 ng/ml each of labetalol, tolbutamide, verapamil, dexamethasone, glipizide, and celecoxib dissolved in methanol) and 40 mM dibutyl acetic acid] to terminate the reaction (double blank samples were terminated with 40 mM dibutyl acetic acid in methanol). The mixture was then thoroughly vortexed for at least 15 s and centrifuged at 12000 g (plasma samples) or 3220 g (brain homogenate) at 4° C. for 15 minutes. • 3) 65 μl of the supernatant was evenly transferred into a 96-well plate and centrifuge at 3220 g, 4° C. for 5 minutes. All procedures were performed on wet ice. All the supernatant was directly injected for LC-MS/MS analysis. The chromatographic column was ACQUITY UPLC BEHC18 with 2.1×100 mm, 1.7 μm. The column temperature was at 40° C. and the flow rate was 0.4 mL/min. The mobile phase A was 0.001% NH3·H2O, 0.18 mM dibutylamine acetate aqueous solution, and mobile phase B was 10 mM N,O-dimethylhydroxylamine and 3 mM NH4OAc solution, acetonitrile/aqueous solution (v:v, 50:50). Standard curves were prepared by spiking compounds into control plasma and brain to determine drug concentrations. Pharmacokinetic parameters and average concentrations at each time point were calculated using DAS 2.0 software through non-compartmental analysis (NCA), as shown in Table 1.

MCAO model = test: MCAO cerebral ischemia model, rotarod motor function test; type: in vivo, mice; settings: 30 mg/kg, seven days after brain injury
Description: Figure a illustrates the experimental process, where drug intervention (using a concentration of 30 mg/kg of LK-2) was conducted 30 minutes after modeling, and the first brain function test (rotarod test) was performed 24 hours after modeling. The second brain function test was conducted 7 days later, with 5 training tests followed by 1 formal test in each rotarod test. Figure b illustrates the time taken for mice to fall off the rotarod during the 5 training tests, where longer time indicates better motor function. […] Figure c illustrates the analysis results of motor ability in the formal test conducted 24 hours and 7 days after modeling for each group of mice. • 3.4 The animal model of cerebral ischemic stroke, known as the middle cerebral artery occlusion (MCAO) model, is a classic model used to simulate individual patients with ischemic stroke, and evaluate the size of cerebral infarction and motor function (evaluate through the rotarod test, including assessment of motor learning and coordination, the experimental design process is illustrated in FIG. 8a) in model animals after drug intervention. The specific steps are as follows: a transient focal ischemic model was formed by occluding the middle cerebral artery for 30 minutes in wild-type or ASIC1a gene knockout mice. […] In this test, mice were placed on the rotating rod and the time to fall was recorded. […]

[2] = male, C57BL/6J, mouse, ip, Brain tissue
[3] = male, C57BL/6J, mouse, ip, Plasma

CL ([1]; Brain tissue): 634.03 ± 53.28 mL/min/kg | V ([1]; Brain tissue): 124.755 ± 15.127 L/kg | CL ([1]; Plasma): 7.13 ± 0.317 mL/min/kg | V ([1]; Plasma): 0.356 ± 0.021 L/kg | Kp ([1]; male, C57BL/6J, mouse, brain/plasma, ip, read-out: Brain/plasma AUC ratio): 0.0127 ± 0.0006 | AUC(0-inf) [1, 2]: 793 ± 68 ng·h/mL | AUC(0-t) [1, 2]: 523 ± 27.9 ng·h/mL | Cmax [1, 2]: 236 ± 31.9 ng/mL | Tmax [1, 2]: 30 min | half-life [1, 2]: 138 ± 26.5 min | MRT last [1, 2]: 106 ± 4.68 min | MRT inf [1, 2]: 218 ± 36.7 min | AUC(0-inf) [1, 3]: 70300 ± 3130 ng·h/mL | AUC(0-t) [1, 3]: 69800 ± 3120 ng·h/mL | Cmax [1, 3]: 92700 ± 8310 ng/mL | Tmax [1, 3]: 30 min | half-life [1, 3]: 34.6 ± 0.9 min | MRT last [1, 3]: 41.6 ± 1.14 min | MRT inf [1, 3]: 43.3 ± 1.08 min
Structure (SMILES): O=C(O)C1CN(C(c2ccccc2)P(=O)(O)O)CCN1 (stereo not drawn) [LK-2]
motor learning ability (MCAO model; rotarod training tests): significant improvement | overall improvement in motor function (MCAO model; rotarod): 51.6%

Reference: US20250120988A1, “SMALL MOLECULE COMPOUND FOR TREATING ISCHEMIC STROKE, ITS PREPARATION METHOD, AND APPLICATION” (SHANGHAI SIXTH PEOPLE'S HOSPITAL, priority 2023, published 2025)
